Assay results: patent US11142543B2 (priority 2016, dated 2021)
Marks after values point to notes of the source that are not given here.

Columns and labels:
ICR mice [1] = assay: Tail suspension test (TST), Example 39; format: in vivo; conditions: gavage 10 mg/Kg for 6 days, t-test
From the text: Tail Suspension Test (TST) to Investigate the Antidepressant Activity of Some Compounds and Some Natural Products of the Present Invention
(§1) Male ICR mice (body weight, 20±2 g) used in the experiment were purchased from the Experimental Animal Center of Shanghai Institute of Materia Medica, Chinese Academy of Sciences. They were free access to water and kept at room temperature (23 2) ° C. in natural light. All mice were randomly divided into a blank control group and a test group, with 10 mice in each group and 5 mice/cage. The experiment was started after 3 days of adaptation in the breeding environment. The mice were fasted for 12 hours before the experiment but free access to water. The specific administration method was gavage administration, and the administration dose was 10 mg/Kg, and the blank control group was given an equal volume of 0.5% CMC-Na.
Specific procedures: The mice were continuously administered for 6 days, and tested 1 hour after the last administration. Firstly, the spontaneous activity of the mice was measured by the open field method, that is, the mice were individually placed in a cylindrical glass jar for 4 minutes, and the number of lifting arms within the last 2 minutes was recorded. Then the tail of the mice was stick onto the horizontal bar by the tape at 2 cm from the tip of the tail, and the animal eyesight was separated by the surrounding plates. The horizontal bar was about 25 cm from the ground, so that the mouse was about 10 cm from the ground, and the timing was 6 min. The cumulative immobility time within the last 4 minutes was recorded. Each group of mice was operated in parallel.
(§2) Experimental data processing: The experimental results were expressed as mean standard error (x SD). Statistical analysis was performed using t-test to determine whether it was significant. […] Then, the t-test was performed on the experimental index of tail suspension test to determine whether it had antidepressant effect.

ICR mice [2] = assay: Forced swimming test (FST), Example 38; format: in vivo; conditions: gavage 10 mg/Kg for 6 days, t-test
From the text: Forced swimming test (FST) to investigate the antidepressant activity of some compounds and some natural products of the present invention
as §1, with “dose of the administration group” for “dose”
Specific procedures: The mice were continuously administered for 6 days, and tested 1 hour after the last administration. Firstly, the spontaneous activity of the mice was measured by the open field method, that is, the mice were individually placed in a cylindrical glass jar for 4 minutes, and the number of lifting arms within the last two minutes was recorded. The mice were then individually placed in a cylindrical glass jar (20 cm high and 14 cm in diameter) with a water depth of 10 cm and a water temperature of 23° C. to 25° C. After mice entered into water, a 6-minute timing was conducted, the cumulative immobility time (the criteria for determining immobility: the mice stopped struggling in the water, or floated with only small limb movements to keep the head float on the water) within the last four minutes was recorded. Each group of mice was operated in parallel.
as §2, with “forced swimming” for “tail suspension test”

ICR mice [3] = assay: Toxicity observed during antidepressant efficacy screening (FST and TST animal batch); format: in vivo; conditions: same animal batch as efficacy screening, gavage 10 mg/Kg
From the text: as §1, with “dose of the administration group” for “dose”
as §1, with “The specific administration method was gavage administration, and the administration dose was 10 mg/Kg, and the blank control group was given an equal volume of 0.5% CMC-Na.” left out

[4] = system: ICR mice with ethanol-induced memory reproduction disorder
Protocol: Learning memory is an advanced function of the human and animal brains.
Before the retesting after training, the ethanol solution was administered to the mouse to block the memory reproduction process of the animal, resulting in memory reproduction disorder.
Male ICR mice, 16-18 g, were purchased from Shanghai Sippr-BK laboratory animal Co. Ltd.
40 male mice were randomly divided into 4 groups by Excel, and each group contained 10 animals. The mice in group 1 (blank group) and mice in group 2 (model group) were orally administered (i.g.) with drinking water daily.
After 3 weeks of administration, 1 hour after the last administration, the exercise was performed once in the dark avoidance method. The mice were placed in a dark avoidance box, and placed in the bright room with the back facing the hole. At the same time, the video analysis device was activated, and the animal passed through the hole into the dark room and received an electric shock, and the timing was automatically stopped. The mice were removed and the screen analysis would record the time required for each mouse to experience an electric shock from the bright room to the dark room, which was the latency period. After 24 h, the test was carried out, and 45% ethanol solution (0.1 ml/10 g) was orally administered 30 min before the test. The video analysis system would automatically record all relevant data of the animal. Data were expressed as mean standard deviation (x±s), and data difference statistics were analyzed by one-way variance (ANOVA) or X^2 test. The difference between groups was judged by P<0.05.

in vivo = conditions: male, SD, rat
Protocol: The healthy male SD rats (about 270 g) were fasted for 10 h before administration, and were free to drink water. […] The time points of blood collection from the eye socket were 30 min, 1 h, 2 h, 4 h, 6 h, 8 h, 10 h, 24 h, 48 h after the administration (n=5). […] The time points of blood collection from the eye socket were 5 min, 10 min, 30 min, 1 h, 2 h, 4 h, 8 h (n=4). The plasma was placed in a heparin-coated centrifuge tube, centrifuged for 10 min (8000 r), and the supernatant was taken and stored in a −80° C. refrigerator. After acetonitrile precipitation treatment, it was detected by HPLC-QQQ. The pharmacokinetic parameters, PK parameters of each mouse were calculated by a non-compartmental model of WinNonlin (Pharsight 6.2, NC, USA). All parameters were represented with Mean S.D. Bioavailability (F)=(AUCOral/DoseOral)/(AUCtail vein/Dosetail vein)

rats [5] = assay: Forced swimming test in rat model, compound C-11 versus fluoxetine, Example 41; format: in vivo; conditions: vs vehicle group, FIG. 3
Protocol: The rats were placed in a cylindrical jar 24 hours before administration to accommodate the underwater environment for 15 min. On the day of the behavioral test, animals were administered twice and administered orally 4 h and 1 h before the behavioral test. The rats were individually placed in a cylindrical glass jar, timed for 6 minutes, and the number of arm lift was recorded within the last 2 minutes. The rats were then placed in a cylindrical glass jar having 30 cm high and 20 cm in diameter. […] Water temperature was 23° C.-25° C.

rats [6] = assay: Tail suspension test in rat model, compound C-11 versus fluoxetine, Example 41; format: in vivo; conditions: vs vehicle group, FIG. 4
Protocol: On the day of the behavioral test, animals were dosed twice and administered orally 4 h and 1 h before the behavioral test. During the experiment, the tail of the rat was hung on a tail suspension test stand about 15 cm away from the ground with a tape or a clip at about 1 cm away from the tail end. […] The experimental time for each group was 6 minutes.

[7] = system: C57 mice susceptible to social defeat by CD-1 aggressive mice; assay: Social defeated stress (SDS) model, Example 42; format: in vivo; conditions: C-11 10 mg/kg gavage every day, fluoxetine 10 mg/kg intraperitoneally every day, 3 weeks
Protocol: Male CD-1 aged 4-6 months mice which had passed childbearing age were raised separately, allowed to eat freely and adapt to the environment for about one week. Male C57 mice (aged 8-20 weeks differently) were used to screen for aggressive CD-1 mice. The mice screened by C57 were placed directly in the cage of CD-1 for 3 minutes, and the latency period for CD-1 to start showing offensive was recorded, and then the mice screened by C57 were moved out. For each CD-1 mouse, the same C57 was used to screen it three times a day, and different C57-selected mice were selected every day for a total of three days of screening. […] After screening for CD-1 aggressive mice for modeling, each C57 test mouse was exposed to different CD-1 aggressive mice for 10 consecutive days, 10 minutes each day. […] After 10 minutes of contact, the test mice were isolated from the invaders. Test mice and aggressive mice were placed in adjacent sections of the same squirrel cage, separated by a porous transparent plastic baffle, allowing test mice to be exposed under a threatening chronic stress stimulation for the next 24 hours. The control mice were placed in cages having the same structure, but the other side of the baffle was placed with other mice of the same line that were replaced daily. After 24 hours after the end of the last day of the experiment, we evaluated CSDS-induced social behavioral changes and selected all susceptible mice based on previous reports. The social interaction ratio (SI ratio) was calculated according to the following formula: SI ratio=time for the mouse in the interaction area when the aggressor exists/time for the mouse in the interaction area when the aggressor is absent. […] All selected test mice and control mice were then housed individually for 3 weeks. […] The mice in the vehicle group were administered by gavage with 0.5% CMC-Na every day. The SI ratio was assessed once a week.
Two-way ANOVA was used to analyze and LSD method was used for the multiple comparisons of calibration results. The data were expressed in Mean sem. […]

[8] = i.g. once a day for three consecutive weeks, donepezil 1.6 mg/kg, C-49 15 mg/kg, n = 10

## C[C@H]1CC[C@@]2(OC1)O[C@H]1C[C@H]3[C@@H]4CC[C@@H]5C[C@H](NC(=O)NC6CCC(O)CC6)CC[C@]5(C)[C@H]4CC[C@]3(C)[C@H]1[C@@H]2C (stereo partly drawn) [compound C-5]
ICR mice [1]
  effect on immobility time of mouse in tail suspension test compared with the blank group (in words): certain antidepressant activity

## C[C@H]1CC[C@@]2(OC1)O[C@H]1C[C@H]3[C@@H]4CC[C@@H]5C[C@H](NC(=O)NN6CCOCC6)CC[C@]5(C)[C@H]4CC[C@]3(C)[C@H]1[C@@H]2C [compound C-7]
ICR mice [1]
  effect on immobility time of mouse in tail suspension test compared with the blank group (in words): certain antidepressant activity

## C[C@H]1CC[C@@]2(OC1)O[C@H]1C[C@H]3[C@@H]4CC[C@@H]5C[C@@H](NC(=O)NC6CCCCC6)CC[C@]5(C)[C@H]4CC[C@]3(C)[C@H]1[C@@H]2C [compound C-12]
ICR mice [2]
  effect on immobility time of mice in forced swimming test compared with the blank group (in words): significant antidepressant activity
ICR mice [1]
  effect on immobility time of mouse in tail suspension test compared with the blank group (in words): significant antidepressant activity
ICR mice [3]
  toxicity observed: No significant toxicity was observed

## C[C@H]1CC[C@@]2(OC1)O[C@H]1C[C@H]3[C@@H]4CC[C@@H]5C[C@H](NC(=O)Nc6ccccc6)CC[C@]5(C)[C@H]4CC[C@]3(C)[C@H]1[C@@H]2C [compound C-13]
ICR mice [2]
  effect on immobility time of mice in forced swimming test compared with the blank group (in words): significantly reduce the immobility time

## COC(=O)C1(NC(=O)N[C@@H]2CC[C@@]3(C)[C@H](CC[C@@H]4[C@@H]3CC[C@]3(C)[C@@H]5[C@H](C[C@@H]43)O[C@]3(CC[C@H](C)CO3)[C@H]5C)C2)CCCCC1 [compound C-19]
ICR mice [1]
  effect on immobility time of mouse in tail suspension test compared with the blank group (in words): certain antidepressant activity

## C[C@H](CO)CC[C@H]1O[C@H]2C[C@H]3[C@@H]4CC[C@@H]5C[C@H](NC(=O)NC6CCCCC6)CC[C@]5(C)[C@H]4CC[C@]3(C)[C@H]2[C@@H]1C [compound C-23]
ICR mice [2]
  effect on immobility time of mice in forced swimming test compared with the blank group (in words): certain antidepressant activity

## C[C@H]1CC[C@@]2(OC1)O[C@H]1C[C@H]3[C@@H]4CC[C@@H]5C[C@H](NC(=O)N(CCO)C6CCCCC6)CC[C@]5(C)[C@H]4CC[C@]3(C)[C@H]1[C@@H]2C [compound C-35]
ICR mice [1]
  effect on immobility time of mouse in tail suspension test compared with the blank group (in words): significantly reduce the immobility time

## C[C@H]1CC[C@@]2(OC1)O[C@H]1C[C@H]3[C@@H]4CC[C@@H]5C[C@H](NC(=O)N(CCNC(=O)CN(C)C)C6CCCCC6)CC[C@]5(C)[C@H]4CC[C@]3(C)[C@H]1[C@@H]2C [compound C-49]
ICR mice [2]
  effect on immobility time of mice in forced swimming test compared with the blank group (in words): significantly reduced the time immobility
ICR mice [1]
  effect on immobility time of mouse in tail suspension test compared with the blank group (in words): significantly reduce the immobility time
[4]; 15 mg/kg, three weeks, mice with memory reproduction disorder induced by ethanol
  improvement effect on learning and memory (in words): significant improvement effect
[4]; [8]
  Number of shocked animals: 3*
  Total number of errors (within 5 min): 3**
[4]; i.g. once a day for three consecutive weeks, donepezil 1.6 mg/kg, C-49 15 mg/kg, x ± s, n = 10
  Latency period from an open room to a dark room: 215.8 ± 135.8 s
In vivo
  bioavailability: 11.1%
In vivo; iv, 1 mg/kg
  AUC: 293 ng·h/mL
  Cmax: 285 ng/mL
  Tmax: 0.1 h
In vivo; po, 100 mg/kg
  AUC: 3120 ng·h/mL
  Cmax: 251 ng/mL
  Tmax: 2.8 ± 1.1 h
In vivo; po, 100 mg/kg, MRT
  MRT: 13.6 h
In vivo; po, 100 mg/kg, T1/2
  half-life: 9.7 h

## CNCCC(Oc1ccc(C(F)(F)F)cc1)c1ccccc1 (stereo not drawn) [fluoxetine]
Rats [5]; dose 1.73 mg/kg oral
  effect on immobility time of rats in forced swimming test: had no effect
  effect on wall climbing behavior of rats in forced swimming test: had no effect
Rats [5]; dose 3.46 mg/kg oral
  effect on immobility time of rats in forced swimming test: had no effect
  effect on wall climbing behavior / wall climbing time of rats in forced swimming test: had no effect
Rats [5]; dose 6.92 mg/kg oral
  effect on immobility time of rats in forced swimming test: significantly affect
  effect on wall climbing behavior of rats in forced swimming test: significantly affect
Rats [6]; dose 1.73 mg/kg oral
  effect on cumulative immobility time of rats in tail suspension test: had no effect
Rats [6]; dose 3.46 mg/kg oral
  effect on cumulative immobility time of rats in tail suspension test: had no effect
Rats [6]; dose 6.92 mg/kg oral
  effect on cumulative immobility time of rats in tail suspension test: significantly affect the cumulative immobility time
[7]; FIG. 5A
  mouse social time: did not work during the third week of administration
[7]; FIG. 5B
  social proportion of mice (SI ratio): not effective after three weeks of administration

## C[C@H]1CC[C@@]2(OC1)O[C@H]1C[C@H]3[C@@H]4CC[C@@H]5C[C@@H](O)CC[C@]5(C)[C@H]4CC[C@]3(C)[C@H]1[C@@H]2C [sarsasapogenin, reference compound]
ICR mice [2]
  effect on immobility time of mice in forced swimming test compared with the blank group (in words): could not significantly reduce the immobility time
ICR mice [1]
  effect on immobility time of mouse in tail suspension test compared with the blank group (in words): could not significantly reduce the immobility time

## C[C@H]1CC[C@@]2(OC1)O[C@H]1C[C@H]3C4CC[C@@H]5C[C@@H](O[C@@H]6OC(CO)[C@H](O)[C@H](O)C6O)CC[C@]5(C)C4CC[C@]3(C)C1[C@@H]2C (stereo partly drawn) [timosaponin A1, reference compound]
ICR mice [2]
  effect on immobility time of mice in forced swimming test compared with the blank group (in words): could not significantly reduce the immobility time
ICR mice [1]
  effect on immobility time of mouse in tail suspension test compared with the blank group (in words): could not significantly reduce the immobility time
